{"source": "patent US20220315572A1", "about": "“SUBSTITUTED CYANOPYRROLIDINES WITH ACTIVITY AS USP30 INHIBITORS” (MISSION THERAPEUTICS LIMITED, priority 2019, published 2022)", "key": {"Turbidimetric solubility": {"assay": "Turbidimetric solubility", "format": "physicochemical", "details": "aqueous buffer, kinetic from dmso stock", "from_the_text": "Turbidimetric solubility: Test compound solution prepared in DMSO diluted into aqueous buffer.\nTurbidimetry is used as the end-point by measuring absorbance at 620 nm."}, "PK mouse": {"assay": "PK mouse", "format": "in vivo", "from_the_text": "Cl in vivo clearance: Pharmacokinetic measurement of the volume of plasma (or any matrix) from which a substance is completely removed per unit time.\nOral F: Oral Bioavailability.\nKpu,u is the ratio of unbound drug in brain to unbound drug in plasma and may be indicative of potential for treating peripheral and/or CNS indications."}, "[1]": {"assay": "Plasma free fraction, equilibrium dialysis", "format": "in vitro ADME", "details": "mouse plasma; read-out: Binding Mouse Plasma fu, p", "from_the_text": "Plasma fu,p: The free fraction of a compound in plasma preparation determined by in vitro equilibrium dialysis. It is understood that only unbound (free) compound is capable of engaging with the target."}, "Hepatocyte Cl human": {"assay": "Hepatocyte Cl human", "format": "in vitro ADME", "details": "human hepatocytes", "procedure": "Hep Cl human: in vitro hepatocyte clearance in human cells.\nClu: in vitro clearance. Clu as defined here is the scaled clearance, in turn calculated from the intrinsic clearance. The intrinsic clearance is the predicted clearance due to hepatic metabolic reactions, determined from incubation of a compound in a hepatocyte preparation."}}, "data": [{"compound": "C[C@@H]1C[C@@H](NC(=O)c2nnc(-c3cccc(C#N)c3)o2)CN1C#N", "note": "[Example 1, N-((3R,5R)-1-Cyano-5-methylpyrrolidin-3-yl)-5-(3-cyanophenyl)-1,3,4-oxadiazole-2-carboxamide]", "values": [{"measurement": "solubility", "setting": "Turbidimetric solubility", "result": 65, "unit": "µM"}, {"measurement": "Unbound plasma Cmax/TOM20-Ub cell potency", "setting": "PK mouse; 10 mg/kg PO dose - mouse", "result": "82-fold"}, {"measurement": "clearance", "setting": "PK mouse; blood, mouse 2 mg/kg iv, read-out: Cl blood", "result": 23, "unit": "mL/min/kg"}, {"measurement": "Kp", "setting": "PK mouse; brain and plasma (unbound), 2 mg/kg IV dose - mouse, unbound brain to unbound plasma, read-out: Kpu, u", "result": 0.01}, {"measurement": "bioavailability", "setting": "PK mouse; in vivo, po, mouse 10 mg/kg, read-out: Oral F (%)", "result": 48, "unit": "%"}, {"measurement": "fraction unbound", "setting": "[1]", "result": 0.54}, {"measurement": "Hepatocyte Cl human scaled Clu", "setting": "Hepatocyte Cl human", "result": 6, "unit": "mL/min/kg"}]}]}
